Like-named read-outs stand apart in the source and are kept apart here.
How the values were obtained:
[1] = test system: total white cells, granulocytes, and platelets; assay: Example 2: L-NAC and D-NAC on rat blood counts after buthionine sulfoximine and tri-drug chemotherapy; format: in vivo; conditions: pretreatment; rats pretreated with buthionine sulfoximine, tri-drug chemotherapy
From the text: In the experiment shown in FIG. 4, rats were pretreated With buthionine sulfoximine to enhance the bone marrow toxicity of chemotherapy, and then treated with the tri-drug chemotherapy regimen with or without L-NAC or D-NAC.

in vivo = conditions: Long Evans, rat, maximum tolerated dose
Procedure: (§1) Osmotic Blood-Brain Barrier Disruption. Anesthesia was induced with 5% isoflurane and maintained with propofol (650 μg/kg/min). Mannitol (25%, 37° C.) was infused cephalad into the left internal carotid artery via a left external carotid catheter (Remsen et al., Anesthesia Analgesia 88:559-67, 1999).
(§2) Aortic Infusion Technique. The left internal carotid artery was temporarily occluded, and agents were administered retrograde to the descending aorta through a left external carotid catheter (Neuwelt et al., Cancer Res 61:7868-74, 2001).
N-Acetylcysteine Toxicity. N-Acetyl-L-cysteine (N-acetylcysteine, Mucomyst; Roxane Laboratories, Inc., Columbus, Ohio) was given by aortic infusion 30 min (n=7) or 60 min (n=10) before blood brain barrier disruption in normal Long Evans rats. Doses ranged from 400 to 1500 mg/kg in 3 ml infused at 0.6 ml/min. Rats were sacrificed 6 days after treatment or at signs of acute neurotoxicity (head tilt, circling, moribund).

[2] = N-Acetylcysteine clearance from rat blood (serum concentration, colorimetric kit and HPLC); format: in vivo, Long Evans rats
Procedure: N-Acetylcysteine Clearance. […] Blood samples (0.5 ml) were collected 5, 15, 30, 60, and 90 min after thiol administration, and serum was evaluated for N-acetylcysteine concentration. Serum N-acetylcysteine concentrations were measured using the Bioxytech GSH-400 colorimetric kit (Oxis Research, Portland, Oreg.). The colorimetric assay was validated by high-pressure liquid chromatography (HPLC) analysis of serum thiols for n=2 rats from groups B and D. Deproteinated serum samples were diluted in 160 mM KH2PO4, pH 3. Thiols were measured by electrochemical detection using a Waters radial compression module with 10-μm C18 column (Waters, Milford, Mass.), an ESA 5010 analytical cell, and an ESA 5100A coulochem detector (ESA Inc., Chelmsford, Mass.). Area under the curve was compared with known concentrations prepared in control sera.

[3] = test system: total white cells, granulocytes, and platelets; assay: Major tumor study: blood counts after tri-drug chemotherapy with or without chemoprotection; format: in vivo, nude rats
Procedure: as §1, §2

platelets = conditions: 8 g/m^2 intravenous 2, 4, or 8 h after high-dose carboplatin; blood counts 6 days after chemotherapy
Procedure: Pilot study 2 evaluated various timing schemes for chemoprotection. Normal rats (n=54, six rats per group) were treated with a tri-drug chemotherapy regimen consisting of carboplatin (200 mg/m^2), melphalan (10 mg/m^2 Alkeran; GlaxoSmithKline, Uxbridge, Middlesex, UK), and etoposide phosphate (100 mg/m^2 Etopophos; Bristol-Meyers Squibb Co.), administered in the right carotid artery. […] For both pilot studies 1 and 2, blood counts were determined at 6 days after chemotherapy, in comparison with untreated controls. For blood count analysis, 0.5 ml of whole blood collected in EDTA microtubes was analyzed in duplicate on a Hemavet 850 (CDC Technologies Inc., Oxford, Conn.).

[4] = previously reported (Neuwelt et al. 1998); cited from earlier work
bone marrow = conditions: administered immediately after chemotherapy, alone or in combination with N-acetylcysteine (Neuwelt et al. 2001); cited from earlier work
[5] = 1000 mg/kg by aortic infusion, 60 min before chemotherapy

## CC(=O)N[C@H](CS)C(=O)O [D-NAC, N-acetyl-D-cysteine]
[1]
  bone marrow chemoprotective activity (total white cells, granulocytes, and platelets): not bone marrow protective

## CC(=O)N[C@@H](CS)C(=O)O [N-acetylcysteine, N-acetyl-L-cysteine]
In vivo; aortic infusion 30 min before blood-brain barrier disruption
  MTD at 6 days: 500 mg/kg
In vivo; aortic infusion 60 min before blood-brain barrier disruption
  MTD at 6 days: 1000 mg/kg
[2]; 1000 mg/kg intra-arterially, 5 min after infusion
  maximum blood concentration: 11.2 ± 1.3 mM
[2]; 1000 mg/kg intra-arterially, 60 min after infusion
  blood concentration at the time of chemotherapy delivery: 200 ± 100 µM
[2]; Long Evans, rat, serum, other: intravenous or aortic infusion (all groups), all groups: 140-1200 mg/kg, intravenous or aortic infusion
  half-life: 9 to 11 min
[3]; [5]
  protection for granulocytes: significantly protective
  protection for white cells: significantly protective
[3]; N-acetylcysteine alone, 1000 mg/kg by aortic infusion, 60 min before chemotherapy
  platelet chemoprotection: not significant
[1]
  bone marrow chemoprotective activity (total white cells, granulocytes, and platelets): significantly reduced chemotherapy toxicity

## O=S([O-])([O-])=S.[Na+].[Na+] [sodium thiosulfate]
[3]; sodium thiosulfate 8 g/m^2 4 and 8 h after chemotherapy, with or without N-acetylcysteine 1000 mg/kg 60 min before
  protection against chemotherapy-induced bone marrow suppression: minimal protective effect
platelets
  platelet chemoprotection: delaying sodium thiosulfate administration improved platelet chemoprotection
[4]
  half-life: 15 min
Bone marrow
  bone marrow chemoprotective activity: minimal bone marrow chemoprotective activity
